{"source": "paper PMC5627448", "about": "“Pharmacokinetics of carfilzomib in patients with advanced malignancies and varying degrees of hepatic impairment: an open-label, single-arm, phase 1 study” (Experimental Hematology & Oncology, 2017)", "key": {"[1]": {"assay": "Plasma pharmacokinetics of carfilzomib and its major metabolites after 30-min IV infusion in patients with normal or impaired hepatic function", "details": "human, in vivo", "protocol": "This was a phase 1, multicenter, open-label, nonrandomized, comparative PK study of carfilzomib in patients with normal hepatic function or mild-to-moderate hepatic impairment. The study was conducted at 12 sites in the USA, United Kingdom, France, and the Netherlands. […] Exploratory objectives included evaluation of overall response rate (ORR) and duration of response (DOR).\nPatients received carfilzomib as a 30-min IV infusion on days 1, 2, 8, 9, 15, and 16 of 28-day cycles (Fig. 1). All patients were to receive doses of 20 mg/m^2 on days 1 and 2 of cycle 1. […]\nBlood samples were collected to measure PK and plasma concentration of carfilzomib and its major metabolites (PR-389/M14, PR-413/M15, and PR-519/M16). […] Safety was assessed throughout the study and included the monitoring of adverse events (AEs) using National Cancer Institute-Common Terminology Criteria for Adverse Events, version 4.03 (NCI-CTCAE v4.03), clinical laboratory evaluations, and vital signs; echocardiograms and physical examinations were also performed. The exact type and frequency of disease or tumor response assessments depended upon tumor type and was assessed by the investigator using the appropriate measure for the underlying malignancy, including Response Evaluation Criteria in Solid Tumours version 1.1. […]"}, "[2]": {"assay": "Safety: treatment-emergent adverse events, discontinuations and deaths (NCI-CTCAE v4.03) in patients by hepatic function", "type": "in vivo, human", "protocol": "(§1) Blood samples were collected to measure PK and plasma concentration of carfilzomib and its major metabolites (PR-389/M14, PR-413/M15, and PR-519/M16). Samples were collected on day 16 of cycle 1 and day 1 of cycle 2 (or on subsequent infusion days when the intended dose levels were administered) before infusion; at 15 min after start of infusion; within 2 min before end of infusion; and at 5, 15, and 30 min (±2 min for each); and at 1, 2, and 4 h (±5 min for each) after end of the infusion (Fig. 1). Safety was assessed throughout the study and included the monitoring of adverse events (AEs) using National Cancer Institute-Common Terminology Criteria for Adverse Events, version 4.03 (NCI-CTCAE v4.03), clinical laboratory evaluations, and vital signs; echocardiograms and physical examinations were also performed. The exact type and frequency of disease or tumor response assessments depended upon tumor type and was assessed by the investigator using the appropriate measure for the underlying malignancy, including Response Evaluation Criteria in Solid Tumours version 1.1.\n(§2) Safety was assessed for patients who received any carfilzomib dose. AEs were mapped to a preferred term and system organ class using MedDRA and were graded using the NCI-CTCAE v4.03. ORR was summarized along with 95% exact binomial CIs by cohorts."}, "[3]": {"system": "relapsed or progressive advanced malignancies", "assay": "Efficacy: best overall response as determined by investigator (RECIST 1.1 / IMWG-URC)", "type": "in vivo, human", "details": "for Best overall response: complete response / Best overall response: partial response / Best overall response: progressive disease / Best overall response: stable disease / Best overall response: not evaluable: response-evaluable population", "protocol": "as §1\nFor multiple myeloma patients, efficacy was assessed on day 1 of each cycle during treatment. For solid tumor patients, efficacy was assessed on day 1 of every other cycle [i.e., on day 1 (±7 days) of cycles 3, 5, 7, 9, etc.] during treatment.\nas §2"}, "[4]": {"details": "cited from earlier work", "source_text": "Carfilzomib is an irreversible, proteasome inhibitor approved in the United States of America (USA) and Europe for the treatment of relapsed or refractory multiple myeloma in combination with lenalidomide + dexamethasone or with dexamethasone alone. […] In the normal hepatic function cohort, one outlier contributed to the extremely high variability. […] [6]."}, "[5]": {"details": "normal hepatic function, n = 11"}, "[6]": {"details": "normal hepatic function, n = 10"}, "[7]": {"details": "IV administration, patients with solid tumors"}}}
{"smiles": "CC(C)C[C@H](NC(=O)[C@H](CCc1ccccc1)NC(=O)CN1CCOCC1)C(=O)N[C@@H](Cc1ccccc1)C(=O)N[C@@H](CC(C)C)C(=O)[C@@]1(C)CO1", "note": "[carfilzomib]", "values": [{"measurement": "Higher carfilzomib AUC vs. normal hepatic function patients", "setting": "[1]", "result": "20–50%"}, {"measurement": "Mean T1/2", "setting": "[1]", "result": "30 to 42", "unit": "min"}, {"measurement": "Deaths considered related to treatment", "setting": "[2]; both in mild hepatic impairment group: gastrointestinal hemorrhage and acute respiratory distress syndrome", "result": "Two"}, {"measurement": "AE resulting in treatment discontinuation: increased blood bilirubin", "setting": "[2]; human, in vivo", "result": 2, "unit": "patients"}, {"measurement": "AE resulting in treatment discontinuation: pneumonitis", "setting": "[2]; human, in vivo", "result": "one"}, {"measurement": "Grade ≥3 AEs considered related to treatment, patients", "setting": "[2]; human, in vivo", "result": 33, "unit": "%"}, {"measurement": "Grade ≥3 AEs, patients", "setting": "[2]; human, in vivo", "result": 76, "unit": "%"}, {"measurement": "Serious AE: acute kidney injury", "setting": "[2]; human, in vivo", "result": "three"}, {"measurement": "Serious AE: anemia", "setting": "[2]; human, in vivo", "result": "two"}, {"measurement": "Serious AE: ascites", "setting": "[2]; human, in vivo", "result": "three"}, {"measurement": "Serious AE: hepatic encephalopathy", "setting": "[2]; human, in vivo", "result": "two"}, {"measurement": "Serious AE: increased blood bilirubin", "setting": "[2]; human, in vivo", "result": "two"}, {"measurement": "Serious AE: lower respiratory tract infection", "setting": "[2]; human, in vivo", "result": "two"}, {"measurement": "Serious AE: pneumonia", "setting": "[2]; human, in vivo", "result": "two"}, {"measurement": "Serious AE: sepsis", "setting": "[2]; human, in vivo", "result": "three"}, {"measurement": "Treatment-emergent AEs, patients", "setting": "[2]; human, in vivo", "result": 98, "unit": "%"}, {"measurement": "Treatment discontinuation due to death", "setting": "[2]; mild impairment, n = 17", "result": 2, "unit": "n"}, {"measurement": "Treatment discontinuation due to disease progression", "setting": "[2]; mild impairment, n = 17", "result": 13, "unit": "n"}, {"measurement": "Treatment discontinuation due to death", "setting": "[2]; moderate impairment, n = 14", "result": 1, "unit": "n"}, {"measurement": "Treatment discontinuation due to disease progression", "setting": "[2]; moderate impairment, n = 14", "result": 7, "unit": "n"}, {"measurement": "Treatment discontinuation due to death", "setting": "[2]; [5]", "result": 1, "unit": "n"}, {"measurement": "Treatment discontinuation due to disease progression", "setting": "[2]; [5]", "result": 7, "unit": "n"}, {"measurement": "Deaths within 30 days after the last dose", "setting": "[2]; safety population", "result": "Nine"}, {"measurement": "Treatment discontinuation due to death", "setting": "[2]; severe impairment, n = 4", "result": 2, "unit": "n"}, {"measurement": "Treatment discontinuation due to disease progression", "setting": "[2]; severe impairment, n = 4", "result": 2, "unit": "n"}, {"measurement": "Treatment discontinuation due to death", "setting": "[2]; total, N = 46", "result": 6, "unit": "n"}, {"measurement": "Treatment discontinuation due to disease progression", "setting": "[2]; total, N = 46", "result": 29, "unit": "n"}, {"measurement": "Deaths among severe hepatic impairment patients", "setting": "[2]; two progressive disease, two fatal AEs unrelated to treatment", "result": "four"}, {"measurement": "Best overall response: complete response", "setting": "[3]; mild impairment, n = 15", "result": "0 (0.0) n (%)"}, {"measurement": "Best overall response: partial response", "setting": "[3]; mild impairment, n = 15", "result": "0 (0.0) n (%)"}, {"measurement": "Best overall response: progressive disease", "setting": "[3]; mild impairment, n = 15", "result": "12 (80.0) n (%)"}, {"measurement": "Best overall response: stable disease", "setting": "[3]; mild impairment, n = 15", "result": "1 (6.7) n (%)"}, {"measurement": "Best overall response: complete response", "setting": "[3]; moderate impairment, n = 9", "result": "0 (0.0) n (%)"}, {"measurement": "Best overall response: not evaluable", "setting": "[3]; moderate impairment, n = 9", "result": "3 (33.3) n (%)"}, {"measurement": "Best overall response: partial response", "setting": "[3]; moderate impairment, n = 9", "result": "0 (0.0) n (%)"}, {"measurement": "Best overall response: progressive disease", "setting": "[3]; moderate impairment, n = 9", "result": "4 (44.4) n (%)"}, {"measurement": "Best overall response: stable disease", "setting": "[3]; moderate impairment, n = 9", "result": "2 (22.2) n (%)"}, {"measurement": "Best overall response: complete response", "setting": "[3]; [6]", "result": "0 (0.0) n (%)"}, {"measurement": "Best overall response: not evaluable", "setting": "[3]; [6]", "result": "0 (0.0) n (%)"}, {"measurement": "Best overall response: partial response", "setting": "[3]; [6]", "result": "1 (10.0) n (%)"}, {"measurement": "Best overall response: progressive disease", "setting": "[3]; [6]", "result": "5 (50.0) n (%)"}, {"measurement": "Best overall response: stable disease", "setting": "[3]; [6]", "result": "4 (40.0) n (%)"}, {"measurement": "DOR of partial response", "setting": "[3]; one multiple myeloma patient with normal hepatic function", "result": "≥ 3", "unit": "months"}, {"measurement": "ORR", "setting": "[3]; overall study population, n = 34, 95% CI 0.1–15.3%", "result": 2.9, "unit": "%"}, {"measurement": "Best overall response: complete response", "setting": "[3]; total, n = 34", "result": "0 (0.0) n (%)"}, {"measurement": "Best overall response: not evaluable", "setting": "[3]; total, n = 34", "result": "5 (14.7) n (%)"}, {"measurement": "Best overall response: partial response", "setting": "[3]; total, n = 34", "result": "1 (2.9) n (%)"}, {"measurement": "Best overall response: progressive disease", "setting": "[3]; total, n = 34", "result": "21 (61.8) n (%)"}, {"measurement": "Best overall response: stable disease", "setting": "[3]; total, n = 34", "result": "7 (20.6) n (%)"}, {"measurement": "Cmax, historical data", "setting": "[4]; 56 mg/m^2, geometric mean (geometric CV%)", "result": "2079 (44%) ng/mL"}, {"measurement": "Estimated clearance", "setting": "[4]; [7]", "result": "high and exceeds hepatic blood flow"}, {"measurement": "Time within which most of the drug is eliminated from the plasma compartment", "setting": "[4]; [7]", "result": "≤ 30", "unit": "min"}, {"measurement": "Difference in PK parameters, mild hepatic impairment vs normal hepatic function", "setting": "[4]; population PK analysis, mild N = 143, normal N = 474", "result": "no statistically significant differences"}]}
